Measurements from patent publication US20090312280A1.

Columns and labels:
HT29 (Colon) = assay: cell survival / MTT combination cytotoxicity; assay type: cell-based, human; conditions: HT29; IC50 cytotoxic agent alone / IC50 combination; Compound 1 at 8x EC50 (360 nM)
Colo205 (Colon) = assay: cell survival / MTT combination cytotoxicity; assay type: cell-based, human; conditions: Colo205; IC50 cytotoxic agent alone / IC50 combination; Compound 1 at 8x EC50 (360 nM)
PC-3 (Prostate) = assay: cell survival / MTT combination cytotoxicity; assay type: cell-based, human; conditions: PC-3; IC50 cytotoxic agent alone / IC50 combination; Compound 1 at 8x EC50 (360 nM)
MDA-MB-231 (Breast) = assay: cell survival / MTT combination cytotoxicity; assay type: cell-based, human; conditions: IC50 cytotoxic agent alone / IC50 combination, Compound 1 at 8x EC50 (360 nM)
K562 (Leukemia) = assay: cell survival / MTT combination cytotoxicity; assay type: cell-based, human; conditions: IC50 cytotoxic agent alone / IC50 combination, Compound 1 at 4x EC50 (180 nM)
[1] = tested on: Colo205 human colon carcinoma xenografts; assay: in vivo chemopotentiation, Colo205 xenograft; parameters: species or system mice
Procedure: (§1) Experiments 1 to 39 were conducted in mice xenografts. Experiments 40-42 were conducted in rat xenografts. Specifically, irinotecan combination studies were conducted in HT29 and Colo205. Gemcitabine combination studies were conducted in Colo205. Docetaxel combination studies were conducted in Colo205.
(§2) Gemcitabine and irinotecan are DNA directed cytotoxics known to induce checkpoint activation and subsequent S/G2M-phase arrest. […] Docetaxel is an antimitotics where recent discoveries describe a novel function for CHK1 in the mitotic checkpoint.

[2] = tested on: HT29 human colon carcinoma xenografts; assay: in vivo chemopotentiation, HT29 xenograft (mice)
Procedure: as §1, §2

[3] = tested on: HT29 human colon carcinoma xenografts; assay: in vivo chemopotentiation, HT29 xenograft (rat)
Procedure: as §1, §2

[4] = Exp 18, docetaxel 30 mg/kg, Compound 1 30 mg/kg as printed, IP Q1w×3
[5] = Exp 19, docetaxel 30 mg/kg + Compound 1 7.5 mg/kg, IP simultaneously Q1w×3
[6] = Exp 20, docetaxel 30 mg/kg + Compound 1 15 mg/kg, IP simultaneously Q1w×3
[7] = Exp 21, docetaxel 30 mg/kg + Compound 1 30 mg/kg, IP simultaneously Q1w×3
[8] = Exp 22, docetaxel 15 mg/kg, Compound 1 15 mg/kg as printed, IP Q1w×3
[9] = Exp 23, docetaxel 15 mg/kg + Compound 1 15 mg/kg, IP simultaneously Q1w×3
[10] = Exp 24, docetaxel 15 mg/kg + Compound 1 30 mg/kg, IP simultaneously Q1w×3
[11] = Exp 25, docetaxel 15 mg/kg Q1w×3 + Compound 1 60 mg/kg, IP simultaneously, Compound 1 two cycles, total 120 mg/kg
[12] = Exp 8, irinotecan 10 mg/kg IP Q3d×4, Compound 1 0 mg/kg
[13] = Exp 9, irinotecan 10 mg/kg IP Q3d×4 + Compound 1 4 mg/kg IP Q3d×4 24 h after
[14] = Exp 10, irinotecan 10 mg/kg IP Q3d×4 + Compound 1 20 mg/kg IP Q3d×4 24 h after
[15] = Exp 11, irinotecan 10 mg/kg IP Q3d×4 + Compound 1 40 mg/kg IP Q3d×4 24 h after
[16] = Exp 12, irinotecan 10 mg/kg IP Q3d×4, Compound 1 0 mg/kg
[17] = Exp 13, irinotecan 30 mg/kg IP Q3d×4, Compound 1 0 mg/kg
[18] = Exp 14, irinotecan 60 mg/kg IP Q3d×4, Compound 1 0 mg/kg
[19] = Exp 15, irinotecan 10 mg/kg IP Q3d×4 + Compound 1 40 mg/kg IP Q3d×4 24 h after
[20] = Exp 16, irinotecan 30 mg/kg IP Q3d×4 + Compound 1 40 mg/kg IP Q3d×4 24 h after
[21] = Exp 17, irinotecan 60 mg/kg IP Q3d×4 + Compound 1 40 mg/kg IP Q3d×4 24 h after
[22] = Exp 26, irinotecan 10 mg/kg IP Q3d×4, Compound 1 0 mg/kg
[23] = Exp 27, irinotecan 10 mg/kg IP Q3d×4 + Compound 1 4 mg/kg IP Q3d×4 24 h after
[24] = Exp 28, irinotecan 10 mg/kg IP Q3d×4 + Compound 1 20 mg/kg IP Q3d×4 24 h after
[25] = Exp 29, irinotecan 10 mg/kg IP Q3d×4 + Compound 1 40 mg/kg IP Q3d×4 24 h after
[26] = Exp 30, irinotecan 10 mg/kg IP Q3d×4, Compound 1 0 mg/kg
[27] = Exp 31, irinotecan 30 mg/kg IP Q3d×4, Compound 1 0 mg/kg
[28] = Exp 32, irinotecan 60 mg/kg IP Q3d×4, Compound 1 0 mg/kg
[29] = Exp 33, irinotecan 10 mg/kg IP Q3d×4 + Compound 1 40 mg/kg IP Q3d×4 24 h after
[30] = Exp 34, irinotecan 30 mg/kg IP Q3d×4 + Compound 1 40 mg/kg IP Q3d×4 24 h after
[31] = Exp 35, irinotecan 60 mg/kg IP Q3d×4 + Compound 1 40 mg/kg IP Q3d×4 24 h after
[32] = Exp 36, irinotecan 50 mg/kg IP Q1w×3, Compound 1 0 mg/kg
[33] = Exp 37, irinotecan 100 mg/kg IP Q1w×3, Compound 1 0 mg/kg
[34] = Exp 38, irinotecan 50 mg/kg IP Q1w×3 + Compound 1 40 mg/kg IP twice weekly, 24 and 72 h after, three weeks
[35] = Exp 39, irinotecan 100 mg/kg IP Q1w×3 + Compound 1 40 mg/kg IP twice weekly, 24 and 72 h after, three weeks
[36] = Exp 40, irinotecan 100 mg/kg IP Q3d×4, Compound 1 0 mg/kg
[37] = Exp 41, irinotecan 100 mg/kg IP Q3d×4 + Compound 1 25 mg/kg two hour IV infusion Q3d×4 24 h after
[38] = Exp 42, irinotecan 100 mg/kg IP Q3d×4 + Compound 1 100 mg/kg two hour IV infusion Q3d×4 24 h after

In the case of N.N.O=C([O-])C1(C(=O)[O-])CCC1.[Pt+2] [Carboplatin], the “PF50 (Potentiation Factor50)” value (HT29 (Colon)) is reported as 3, the “PF50 (Potentiation Factor50)” value (Colo205 (Colon)) is reported as 5.4 and the “PF50 (Potentiation Factor50)” value (PC-3 (Prostate)) is reported as 3.1. For the same compound, the “PF50 (Potentiation Factor50)” value (MDA-MB-231 (Breast)) was 2.55 and the “PF50 (Potentiation Factor50)” value (K562 (Leukemia)) was 1.9.

For CC(=O)O[C@@]12CO[C@@H]1C[C@H](O)[C@@]1(C)C(=O)[C@H](O)C3=C(C)[C@@H](OC(=O)[C@H](O)[C@@H](NC(=O)OC(C)(C)C)c4ccccc4)C[C@@](O)([C@@H](OC(=O)c4ccccc4)[C@H]21)C3(C)C [Docetaxel], the “% TGI” value [1, 4] was 85%, the “Growth delay” value [1, 4] was 54 days and the “% TGI” value [1, 5] was 90%. The “% poten TGI” value [1, 5] was 35%, the “Growth delay” value [1, 5] was 53 days and the “% TGI” value [1, 6] was 93%. For the same compound, the “% TTP” value [1, 6] was 36%, the “% poten TGI” value [1, 6] was 57% and the “Growth delay” value [1, 6] was 68 days. The “% TGI” value [1, 7] was 103%, the “% TTP” value [1, 7] was 50% and the “% poten TGI” value [1, 7] was 122%. The “Growth delay” value [1, 7] was 74 days, the “% TGI” value [1, 8] was 49% and the “Growth delay” value [1, 8] was 4.75 days. The “% TGI” value [1, 9] was 65%, the “% TTP” value [1, 9] was 72% and the “% poten TGI” value [1, 9] was 31%. For the same compound, the “Growth delay” value [1, 9] was 19.75 days, the “% TGI” value [1, 10] was 79% and the “% TTP” value [1, 10] was 177%. For the same compound, the “% poten TGI” value [1, 10] was 59%, the “Growth delay” value [1, 10] was 41.5 days and the “% TGI” value [1, 11] was 99%. For the same compound, the “% TTP” value [1, 11] was 145%, the “% poten TGI” value [1, 11] was 99% and the “Growth delay” value [1, 11] was 35 days.

With COc1cccc2c1C(=O)c1c(O)c3c(c(O)c1C2=O)C[C@@](O)(C(=O)CO)C[C@@H]3O[C@H]1C[C@H](N)[C@H](O)[C@H](C)O1 [Doxorubicin] the “PF50 (Potentiation Factor50)” value (HT29 (Colon)) was 2.2, the “PF50 (Potentiation Factor50)” value (Colo205 (Colon)) was 1.1 and the “PF50 (Potentiation Factor50)” value (PC-3 (Prostate)) was 1.5. The “PF50 (Potentiation Factor50)” value (MDA-MB-231 (Breast)) was 2.25 and the “PF50 (Potentiation Factor50)” value (K562 (Leukemia)) was 1.1.

With CCc1c2c(nc3ccc(OC(=O)N4CCC(N5CCCCC5)CC4)cc13)-c1cc3c(c(=O)n1C2)COC(=O)[C@]3(O)CC [Irinotecan] the “% TGI” value [1, 12] was 35%, the “Growth delay” value [1, 12] was 18 days and the “% TGI” value [1, 13] was 50%. For the same compound, the “% poten TGI” value [1, 13] was 22%, the “Growth delay” value [1, 13] was 18 days and the “% TGI” value [1, 14] was 69%. The “% TTP” value [1, 14] was 33%, the “% poten TGI” value [1, 14] was 52% and the “Growth delay” value [1, 14] was 24 days. The “% TGI” value [1, 15] was 59%, the “% TTP” value [1, 15] was 12% and the “% poten TGI” value [1, 15] was 37%. The “Growth delay” value [1, 15] was 20.5 days, the “% TGI” value [1, 16] was 35% and the “Growth delay” value [1, 16] was 18 days. The “% TGI” value [1, 17] was 65%, the “Growth delay” value [1, 17] was 22 days and the “% TGI” value [1, 18] was 83%. For the same compound, the “Growth delay” value [1, 18] was 48 days, the “% TGI” value [1, 19] was 59% and the “% TTP” value [1, 19] was 12%. For the same compound, the “% poten TGI” value [1, 19] was 37%, the “Growth delay” value [1, 19] was 20.5 days and the “% TGI” value [1, 20] was 73%. For the same compound, the “% TTP” value [1, 20] was 54%, the “% poten TGI” value [1, 20] was 24% and the “Growth delay” value [1, 20] was 34 days. The “% TGI” value [1, 21] was 91%, the “% TTP” value [1, 21] was 8% and the “% poten TGI” value [1, 21] was 47%. For the same compound, the “Growth delay” value [1, 21] was 52 days, the “% TGI” value [2, 22] was 26% and the “Growth delay” value [2, 22] was 1.75 days. For the same compound, the “% TGI” value [2, 23] was 26%, the “% TTP” value [2, 23] was 29% and the “Growth delay” value [2, 23] was 7.5 days. For the same compound, the “% TGI” value [2, 24] was 61%, the “% TTP” value [2, 24] was 39% and the “% poten TGI” value [2, 24] was 47%. The “Growth delay” value [2, 24] was 9.5 days, the “% TGI” value [2, 25] was 57% and the “% TTP” value [2, 25] was 44%. The “% poten TGI” value [2, 25] was 42%, the “Growth delay” value [2, 25] was 10.5 days and the “% TGI” value [2, 26] was 8%. The “Growth delay” value [2, 26] was 2.75 days, the “% TGI” value [2, 27] was 13% and the “Growth delay” value [2, 27] was 4 days. The “% TGI” value [2, 28] was 49%, the “Growth delay” value [2, 28] was 12.5 days and the “% TGI” value [2, 29] was 22%. For the same compound, the “% TTP” value [2, 29] was 0%, the “% poten TGI” value [2, 29] was 15% and the “Growth delay” value [2, 29] was 1.0 days. For the same compound, the “% TGI” value [2, 30] was 66%, the “% TTP” value [2, 30] was 61% and the “% poten TGI” value [2, 30] was 60%. For the same compound, the “Growth delay” value [2, 30] was 17.5 days, the “% TGI” value [2, 31] was 77% and the “% TTP” value [2, 31] was 28%. For the same compound, the “% poten TGI” value [2, 31] was 55%, the “Growth delay” value [2, 31] was 21 days and the “% TGI” value [2, 32] was 65%. The “Growth delay” value [2, 32] was 7.5 days, the “% TGI” value [2, 33] was 70% and the “Growth delay” value [2, 33] was 11.5 days. For the same compound, the “% TGI” value [2, 34] was 77%, the “% TTP” value [2, 34] was 24% and the “% poten TGI” value [2, 34] was 36%. The “Growth delay” value [2, 34] was 14 days, the “% TGI” value [2, 35] was 89% and the “% TTP” value [2, 35] was 49%. The “% poten TGI” value [2, 35] was 62%, the “Growth delay” value [2, 35] was 21 days and the “% TGI” value [3, 36] was 45%. The “Growth delay” value [3, 36] was 4.0 days, the “% TGI” value [3, 37] was 58% and the “% poten TGI” value [3, 37] was 23%. For the same compound, the “Growth delay” value [3, 37] was 4.0 days, the “% TGI” value [3, 38] was 77% and the “% TTP” value [3, 38] was 24%. For the same compound, the “% poten TGI” value [3, 38] was 58% and the “Growth delay” value [3, 38] was 8.0 days.

CO[C@@]12[C@H](COC(N)=O)C3=C(C(=O)C(C)=C(N)C3=O)N1C[C@@H]1N[C@@H]12 [Mytomicin C] was tested, and the “PF50 (Potentiation Factor50)” value (HT29 (Colon)) was 3.7, the “PF50 (Potentiation Factor50)” value (Colo205 (Colon)) was 5.3 and the “PF50 (Potentiation Factor50)” value (MDA-MB-231 (Breast)) was 1.2.
